Experimental findings from US20150087673A1, “METHODS FOR USING AND BIOMARKERS FOR AMPK-ACTIVATING COMPOUNDS” (RIGEL PHARMACEUTICALS, INC., priority 2013, published 2015) are described below.

Molecules are shown by their SMILES.

In the experiment the test system is AMPK. Kind of experiment: AMPK activation assay (enzyme-linked immunosorbent assay). The class given is cell-based. The method in brief: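 Activator screen performed per well-known kit methods.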
Take `CC(=O)c1ccc(Oc2ccc(NC(=O)c3ccc(C(=O)N4CCC(Oc5ccc(S(C)(=O)=O)cc5)CC4)cn3)cn2)cc1` [Compound 259, N-(6-(4-acetylphenoxy)pyridin-3-yl)-5-(4-(4-(methylsulfonyl)phenoxy)piperidine-1-carbonyl)picolinamide]: the EC50 is below 500 nM.
In turn, `O=C(Nc1ccc(Oc2ccc(F)cc2)nc1)c1ccc(C(=O)N2CCC(Oc3ccc(F)cc3)CC2)cn1` [Compound 273, 5-(4-(4-fluorophenoxy)piperidine-1-carbonyl)-N-(6-(4-fluorophenoxy)pyridin-3-yl)picolinamide] had an EC50 below 500 nM.
In turn, `N#Cc1ccc(OC2CCN(C(=O)c3ccc(C(=O)NC4CCN(Cc5nccs5)CC4)cn3)CC2)cc1` [Compound 356, 6-(4-(4-cyanophenoxy)piperidine-1-carbonyl)-N-(1-(thiazol-2-ylmethyl)piperidin-4-yl)nicotinamide] gave an EC50 below 500 nM.
As for `CN(C)C(=O)c1ccc(OC2CCN(C(=O)c3ccc(C(=O)NC4CCN(Cc5ccc(C#N)cc5)CC4)nc3)CC2)cc1` [Compound 357, N-(1-(4-cyanobenzyl)piperidin-4-yl)-5-(4-(4-(dimethylcarbamoyl)phenoxy)piperidine-1-carbonyl)picolinamide], the figure is below 500 nM; as for `N#Cc1ccc(CN2CCC(NC(=O)c3ccc(C(=O)N4CCC(C(=O)c5ccc(-n6cccn6)cc5)CC4)nc3)CC2)cc1` [Compound 393, 6-(4-(4-(1H-pyrazol-1-yl)benzoyl)piperidine-1-carbonyl)-N-(1-(4-cyanobenzyl)piperidin-4-yl)nicotinamide], below 500 nM.
`N#Cc1ccc(CN2CCC(NC(=O)c3ccc(C(=O)N4CCN(c5ccc(S(=O)(=O)C(F)(F)F)cc5)CC4)cn3)CC2)cc1` [Compound 257, N-(1-(4-cyanobenzyl)piperidin-4-yl)-5-(4-(4-(trifluoromethylsulfonyl)phenyl)piperazine-1-carbonyl)picolinamide]: the EC50 was below 500 nM.
Next, `COc1ccc(CC2CCN(C(=O)c3ccc(C(=O)NC4CCN(Cc5ccc(C#N)cc5)CC4)nc3)CC2)cc1` [Compound 131, N-(1-(4-cyanobenzyl)piperidin-4-yl)-5-(4-(4-methoxybenzyl)piperidine-1-carbonyl)picolinamide]: below 500 nM; `O=C(NC1CCN(Cc2ccc(F)cc2)CC1)c1ccc(C(=O)N2CCN(Cc3ccc(F)cc3)CC2)nc1` [Compound 328, 6-(4-(4-fluorobenzyl)piperazine-1-carbonyl)-N-(1-(4-fluorobenzyl)piperidin-4-yl)nicotinamide]: below 500 nM.
Next, `COc1ccc(OC2CCN(C(=O)c3ccc(C(=O)NC4CCN(Cc5cc(F)cc(F)c5)CC4)nc3)CC2)cc1` [Compound 296, N-(1-(3,5-difluorobenzyl)piperidin-4-yl)-5-(4-(4-methoxyphenoxy)piperidine-1-carbonyl)picolinamide]: below 500 nM; `N#Cc1ccc(CN2CC[C@@H](NC(=O)c3ccc(C(=O)N4CCN(Cc5ccc(F)cc5)CC4)cn3)[C@@H](F)C2)cc1` [Compound 100]: below 500 nM; `CN1CCN(c2ccc(C(=O)C3CCN(C(=O)c4ccc(C(=O)NC5CCN(Cc6ccc(OC(F)(F)F)cc6)CC5)cn4)CC3)cc2)CC1` [Compound 244, 6-(4-(4-(4-methylpiperazin-1-yl)benzoyl)piperidine-1-carbonyl)-N-(1-(4-(trifluoromethoxy)benzyl)piperidin-4-yl)nicotinamide]: 5000 to 10000 nM.
As for `O=C(c1ccc(C(=O)N2CCN(Cc3ccc(F)cc3)CC2)nc1)N1CCN(Cc2ccc(F)cc2)CC1` [Compound 3, pyridine-2,5-diylbis((4-(4-fluorobenzyl)piperazin-1-yl)methanone)], the figure is 500 to 1000 nM; as for `N#Cc1ccc(CN2CCC(NC(=O)c3ccc(C(=O)N4CCC(Oc5ccc(S(=O)(=O)C(F)(F)F)cc5)CC4)nc3)CC2)cc1` [Compound 450, N-(1-(4-cyanobenzyl)piperidin-4-yl)-6-(4-(4-(trifluoromethylsulfonyl)phenoxy)piperidine-1-carbonyl)nicotinamide], below 500 nM.
